Entries after “also recorded” stand apart in the source; their conditions may differ. Read-outs that look alike come from different tables or passages of the source.
Assays:
[1] = system: OVCAR8, OVCAR429, OVCAR4, and IGROV1 cells; test: Metabolomics (LC-MS/MS metabolic profiling); format: cell-based; settings: 1 μM, 24 hours; muted or absent in non-responder lines
Protocol: OVCAR8 cells were plated at 3×10^6 cells per 10 cm dish and OVCAR429, IGROV1, and OVCAR4 were plated at 3.5×10^6 cells per 10 cm dish 24 hours (24 h) prior to treatment. […] On day 1 (d.1), 2 hours (2 h) prior to harvest, samples were washed with 5 mL media containing 10% dialyzed FBS. 10 mL of media was added to plates and plates were returned to the incubator for 2 h. Media was then aspirated from plates and 4 mL of 80% chilled MeOH (−80° C.) was immediately added. Plates were incubated at −80° C. for 15 minutes. Cells were then scraped with cell scraper to release cells while keeping plates on dry ice. The MeOH/cell lysate mixture was collected and transferred to conical tubes on dry ice. Tubes were centrifuged at full speed in 4° C. chilled centrifuge for 5 minutes. Supernatant was transferred to another set of conical tubes on dry ice by decanting. The remaining pellet was re-suspended in 500 μL of cold MeOH and the mixture was moved to a microcentrifuge tube. Microfuge tubes were spun at full speed for 5 minutes in 4° C. chilled microcentrifuge. […]
Differentially abundance analysis of metabolite levels was carried out using a moderated t-test function from Bioconductor's limma package (Smyth 2005). […] The normalization factor was calculated by first defining a vector, Nmed, to be the median peak area for each metabolite across a set of samples. […]

[2] = system: responder cells OVCAR420, OVCAR429; test: Analysis of reactive oxygen species production (CM-H2DCFDA, flow cytometry); format: cell-based; settings: 1 μM, 48 hours
Protocol: One day prior to the experiment, OVCAR-8 and OVCAR420 cells were seeded in 6 well dishes (250,000 cells per well). […] The following day, an allocated well was treated with hydrogen peroxide for 20-30 minutes as a positive control for ROS generation. All wells were then stained with CM-H2DCFDA (5 μM, Life Technologies) for 30 minutes at 37° C., washed with 1×PBS, harvested by trypsinization, and re-suspended in 400 μl phenol-free RPMI medium. Cells were strained through a […] cell strainer and analyzed using a flow cytometer (LSR Fortessa).
For each condition, calculation of mean fluorescence intensity allows for the comparison of ROS accumulation between control and treated samples. Shown are responder cells: (a) OVCAR420; (b) OVCAR429, with GFP-A on the x-axis, and count on the y-axis.

OVCAR429 [3] = test: Cell viability / proliferation assay (Cell Titer Glo, 72 h); format: cell-based
Protocol: Cells were allowed to settle and attach overnight. Cells plated in triplicate for each concentration and control examined. […] Cells were incubated with compound or relevant controls for 72 hours. On Day 4, 72 hours after treatment, cells were analyzed by Cell Titer Glo (PromegaG7573) per manufacturer's instructions. Plates were read in luminescence mode on a PheraStarFS plate reader. Data was collected, replicates were averaged, standard deviations calculated and analyzed through nonlinear regression analysis with four (4) parameters to generate IC50s for each cell line tested.

[4] = system: OVCAR8 and OVCAR420 cells; test: DNA damage staining and quantification (γH2AX foci); format: cell-based; settings: 48 hours
Protocol: Cells were then fixed using 4% Paraformaldehyde and permeabilized using 0.5% TritonX100. Fixed cells were stained with Anti-γH2AX, rabbit (Bethyl IHC-00059) (1:500) for 2 h at 37 C. The secondary antibody used was Alexa Fluor 546 donkey anti-rabbit (Invitrogen A10040) (1:150) simultaneously with Hoechst 33342, Trihydrochloride, Trihydrate (Invitrogen, H3570) (1:1000) for 1 h at 37 C. DNA damage was measured as a γH2AX signal per nucleus using PerkinElmer High Content Screening System Operetta with the Harmony software. First, nuclei were selected using Hoechst staining. Then, single cells were gated based on nucleus size and shape. Apoptotic and mitotic cells were excluded based on maximum Hoechst intensity in the nucleus. DNA damage foci were identified within the gated nuclei using the “find spots in Alexa 546 channel” analysis block. Finally, the total intensity of Alexa 546 within all “spots” in the nucleus, or the total number of spots in the nucleus, averaged per cell, was calculated.
GLS-1 inhibition induces oxidative stress that leads to accumulation of DNA damage. […] Moreover, we observed an accumulation of γH2AX foci, a marker of DNA damage, and the likely cause of anti-proliferative effects observed upon GLS-1 inhibition (FIG. 11).

OVCAR8 [5] = test: Cell viability / proliferation assay (Cell Titer Glo, 72 h); format: cell-based
A2780 = test: as above; format: cell-based
Description: (§1) Cells were allowed to settle and attach overnight.

IGROV1 = test: as above; format: cell-based
Description: as §1

OVCAR4 [6] = test: as above; format: cell-based
Description: as §1

OVCAR420 [7] = test: cells
Protocol: Cell culture media: All cells were grown in RPMI-1640 (Gibco11875-119) with 2 mM Glutamine+10% FBS (Gibco16000-044) unless otherwise noted.
Cells were plated in black, 96-well Corning Costar 3603 at densities to allow for Log phase growth throughout the experiment (see table below) on Day 0. Cells were allowed to settle and attach overnight. Cells plated in triplicate for each concentration and control examined. […] Cells were incubated with compound or relevant controls for 72 hours. On Day 4, 72 hours after treatment, cells were analyzed by Cell Titer Glo (PromegaG7573) per manufacturer's instructions. Plates were read in luminescence mode on a PheraStarFS plate reader. Data was collected, replicates were averaged, standard deviations calculated and analyzed through nonlinear regression analysis with four (4) parameters to generate IC50s for each cell line tested.

OVCAR8 [8] = test: Analysis of glutathione levels (GSH-Glo); format: cell-based; settings: OVCAR8, 1 μM, 24 hours
Protocol: (§2) Analysis of Glutathione Levels: Cells were plated in 96-well Corning Costar 3603 at 10,000 cells/well on Day 0. Cells were allowed to settle and attach overnight. […] Cells were incubated with compound or relevant controls for 24 hours. On Day 2, 24 hours after treatment, cells were analyzed by GSH-Glo (PromegaV6912) per manufacturer's instructions. […] Duplicate wells were plated and then stained with crystal violet in order to correct for differences in cell growth as described below.
(§3) GLS-dependence is driven by addiction to glutamine-dependent, glutathione-mediated redox maintenance in OVCA responder cell lines. […] Consistent with this hypothesis, GLS-1 inhibition induced a significant decrease in intracellular glutathione and a concurrent increase in reactive oxygen species (FIGS. 7 and 8) in responder lines.

OVCAR429 [9] = test: Analysis of glutathione levels (GSH-Glo); format: cell-based; settings: OVCAR429, 1 μM, 24 hours
Protocol: as §2, §3

OVCAR420 [10] = test: Analysis of glutathione levels (GSH-Glo); format: cell-based; settings: OVCAR420, 1 μM, 24 hours
Protocol: as §2, §3

OVCAR4 [11] = test: Analysis of glutathione levels (GSH-Glo); format: cell-based; settings: OVCAR4 (non-responder), 24 hours
Protocol: as §2, §3

[12] = system: ASNSlow HGSOC patient-derived xenograft; test: ASNSlow HGSOC patient-derived xenograft (PDX) model; format: in vivo, NOD/SCID mice; settings: orally 100 mg/kg, BID for 39 days; p<0.0001 vs vehicle control
Protocol: The the anti-tumor effects of Compound 2 were tested in vivo in an ASNS^low HGSOC patient-derived xenograft (PDX) model using human tumor tissue that was identified through immunohistochemistry to be ASNS^low and characterized through histological phenotyping to be of a high-grade serous subtype, implanted in to NOD/SCID mice.
Compound 2 inhibits tumor growth of an ASNS^low PDX xenograft as a single agent in NOD/SCID mice (FIG. 23(b)). In this experiment, Compound 2, administered orally at a dose of 100 mg/kg, BID for 39 days inhibited tumor growth (TGI=50%, p<0.0001 for tumor volumes after treatment with Compound 2 vs vehicle control).

[13] = system: OVCAR-8 subcutaneous xenografts; test: OVCAR-8 subcutaneous xenograft; format: in vivo, athymic mice; settings: 100 mpk, twice a day, oral gavage, three weeks
Protocol: OVCAR-8 cells were implanted subcutaneously into athymic mice and allowed to grow into an established tumor. Animals were then treated with compound 2, for three weeks (100 mpk, twice a day) by oral gavage.

OVCAR-8 tumors = test: Glutamate:glutamine ratio in OVCAR-8 tumor lysates (mass spec); format: in vivo; settings: dosed for 1, 7 or 21 days
Protocol: OVCAR-8 tumors were dosed for 1, 7 or 21 days and then harvested from animals. Tumor lysates were analyzed by mass spec for the presence of glutamine and glutamate.

SK-OV-3 cells = test: Orthotopic model of ovarian cancer (SK-OV-3, intraperitoneal); format: in vivo, athymic nude mice; settings: day 21; compared to vehicle or paclitaxel alone
Protocol: SK-OV-3 cells were injected into the intraperitoneal cavity of athymic nude mice and allow to grow for 7 days. At day 7, animals were treated with the in vivo tool compound to inhibit GLS-1 and animals were monitored for clinical disease signs.

Structure (SMILES)	changes in metabolite levels [1]	accumulation of intracellular ROS [2]	IC50 (OVCAR429 [3]) [nM]	response, 72 hour viability (OVCAR429 [3]; OVCAR429)	IC50 (OVCAR429 [3]; OVCAR429, 72 h, read-out: IC50, viability (relative to DMSO)) [nM]	DNA damage (γH2AX foci per nuclei) [4]	IC50 (OVCAR8 [5]; Homo sapiens, OVCAR-8, OVCAR8, 72 h, read-out: IC50, viability (relative to DMSO)) [nM]	response, 72 hour viability (OVCAR8 [5]; OVCAR8)	response, viability (A2780)	response, 72 hour viability (IGROV1)	response, viability (OVCAR4 [6])	IC50 (OVCAR420 [7]) [nM]	GSH levels (OVCAR8 [8])	GSH levels (OVCAR429 [9])	GSH levels (OVCAR420 [10])	GSH levels (OVCAR4 [11])	TGI (tumor growth inhibition) [12] [%]	tumor growth (tumor volume) [13]	glutamate:glutamine ratio in tumors (OVCAR-8 tumors)	combined nodule weight per animal (SK-OV-3 cells)
O=C(Cc1cccc(OC(F)(F)F)c1)Nc1ccc(CCCCc2nnc(NC(=O)Cc3ccccn3)s2)nn1 [Compound 1, 2-(pyridin-2-yl)-N-{5-[4-(6-{2-[3-(trifluoromethoxy)phenyl]acetamido}pyridazin-3-yl)butyl]-1,3,4-thiadiazol-2-yl}acetamide]	decrease in TCA cycle activity	induces an accumulation of ROS	76	nM sensitivity	59	induces DNA damage	13	nM sensitivity	no response	resistant	resistant; also recorded: no response	59	significantly decreased	significantly decreased	significantly decreased	does not show a significant decrease	–	–	–	–
CNC(=O)c1cn(C[C@H](F)CCc2ccc(NC(=O)Cc3cc(OC4CC(F)(F)C4)cc(C)n3)nn2)nn1 [Compound 2, (R)-1-(4-(6-(2-(4-(3,3-difluorocyclobutoxy)-6-methylpyridin-2-yl)acetamido)pyridazin-3-yl)-2-fluorobutyl)-N-methyl-1H-1,2,3-triazole-4-carboxamide]	–	–	–	–	–	–	–	–	–	–	–	–	–	–	–	–	50	significant tumor growth inhibition	altered glutamine metabolism	robust reduction
